Experiments:
[1] = Plasma stability; format: in vitro ADME; settings: Human plasma
Experimental: Plasma previously separated from whole blood in EDTA-treated tubes and frozen; blood samples obtained from healthy volunteers, Sprague Dawley rats and CD1 mice, was thawed at room temperature and centrifuged at 1400x RCF 4°C, for 15 minutes. Approximately 90% of the clear supernatant fraction was transferred to a separate tube and was used for the assay.
Stocks (1 mM and 25 µM) of test compound were prepared in acetonitrile:water (50:50 v/v). Plasma samples were heat inactivated at 54°C. 3 µl of 25 µM test compound were added to 72 µl of heat inactivated plasma. A 50 µL aliquot of the mixture was taken and crashed with 200 µl of acetonitrile containing Telmisartan 100 ng/ml as internal standard and was further processed along with other time points: 10, 30 60 and 120 minutes.
Final working stock of 1 µM was prepared by diluting 12 µl of 25 µM stock in 288 µl of plasma. The obtained solution (300 µl) of plasma containing the test compound was incubated for […] at 37°C in shaker water bath with gentle shaking. 50 µl aliquot of sample at 10, 30, 60 and 120 min was precipitated immediately with 200 µl of acetonitrile containing internal standard and centrifuged at 4000x RCF, 4°C for 20 minutes. 150 µl of supernatant was diluted with 150 µl of water and analyzed by LC-MS/MS.
The % remaining of the test substance was calculated as: (Peak Area ratio at time (min))/(Peak Area Ratio at 0 min) ^∗ 100
The API400 MS and Agilent 1260 Infinity LC were used. Mobile Phase included 10mM Ammonium acetate with 0.1% formic acid in MilliQ water, and Methanol. The column was Phenomenex, KINETIC EVO C18 100A 5u 50^∗4.6 mm, 10 µl injection volume.

[2] = Dose estimation by allometric relationship (PAD, HED); settings: mouse models
Description: Based on pharmacokinetic studies and efficacy in vivo, it is possible to estimate a dosage in humans by allometric relationship (USFDA. Guidance for Industry: Estimating the Maximum Safe Starting Dose in Adult Healthy Volunteer. Rockville, MD: US Food and Drug Administration; 2005). […] The human equivalent dose (HED) can be estimated according with the FDA guidelines by means of the following formula: HED = animal dose × (((animal weight)/(human weight)))^((1−0.67)) [formula]
Based on PAD in mouse models, the HED can be estimated as 1.8 mg/(Kg·day) considering a mouse average weight of 30 g and an adult human body weight of 60 Kg.

[3] = test system: MCF10a; test: Cytotoxicity in non-tumor cells, cell count method; format: cell-based, human
Experimental: The non-specific toxicity of the compounds is evaluated in non-tumor immortalized cells with cell count and / or MTS methods, and in primary Peripheral Blood Mononuclear Cells (PBMC) with the ATP-based method.
Cells were seeded at 3 to 5 x 10^4 cells/well density depending on cell lines and maintained at 37°C in 5% CO2. After 24 hours cells were treated with ascending concentrations of the investigational compounds and the reference (5-fluoro-Uracyl) in a range from 0 to 100 µM. Compounds were dissolved in DMSO which final concentration in each well was 0.5% v:v. After 72 h of incubation with compounds, the cells were detached with trypsin and re-suspended in 1 ml of complete medium; the cell number was evaluated using a Z2 Coulter Counter ("cell count method") (Attallah and Johnson, A simple highly sensitive methods for the determination of cell viability using an electronic particle analyzer, Coulter counter J. Immunol. Methods. 1981, 41, 155; Leonardi et al., Activated kinase screening identifies the IKBKE oncogene as a positive regulator of autophagy. Autophagy, 2019, 15, 312). Alternatively, after the 72 hours of incubation with compounds, the MTS solution (CellTiter 96® AQueous One Solution Cell Proliferation Assay) is added to each well and absorbance at 490 nm wavelength is read after 2 hours of incubation ("MTS method"). […]

[4] = Tissue distribution after single I.P. administration; format: in vivo, male Swiss Albino Mice
[5] = test system: MDAMB231 cell line; test: Cytotoxicity, cell count method; format: cell-based, human; settings: Homo sapiens, MDA-MB-231, MDAMB231, 72 hours of incubation
Experimental: The anti-tumor activity of the compounds of the present invention was evaluated as the effect on the proliferation and survival of tumor cells by counting the number of living cells in presence or absence of the compounds ("cell count method"), and as the effect on the viability and metabolic activity of the cells, by using particular substrates that are converted by cellular enzymes into coloured or luminescent products, proportionally with metabolic activity and state of the cell, such as the MTS tetrazolium compound ("MTS method") or luciferin ("ATP-based method") respectively.
Cells were seeded at 3 to 5 x 10^4 cells/well density depending on cell lines and maintained at 37°C in 5% CO2. After 24 hours cells were treated with ascending concentrations of the investigational compounds and the reference (5-fluoro-Uracyl) in a range from 0 to 100 µM. Compounds were dissolved in DMSO which final concentration in each well was 0.5% v:v. After 72 h of incubation with compounds, the cells were detached with trypsin and re-suspended in 1 ml of complete medium; the cell number was evaluated using a Z2 Coulter Counter ("cell count method") (Attallah and Johnson, A simple highly sensitive methods for the determination of cell viability using an electronic particle analyzer, Coulter counter J. Immunol. Methods. 1981, 41, 155; Leonardi et al., Activated kinase screening identifies the IKBKE oncogene as a positive regulator of autophagy. Autophagy, 2019, 15, 312). Alternatively, after the 72 hours of incubation with compounds, the MTS solution (CellTiter 96® AQueous One Solution Cell Proliferation Assay) is added to each well and absorbance at 490 nm wavelength is read after 2 hours of incubation ("MTS method"). Results in Tables 8-13, 17, 18 were obtained with the cell count method. Results in Tables 14-15 were obtained with the MTS method. Results in Table 16 were obtained with ATP-based method.

CCCCc1cn(-c2ccc(-c3nnc(-c4ccccc4C(F)(F)F)o3)cc2)nn1 [Compound 5]
% Remaining ± SD ([1]; 0 minutes): 100.0 ± 3.9%
% Remaining ± SD ([1]; 10 minutes): 107.1 ± 7.7%
% Remaining ± SD ([1]; 30 minutes): 87.2 ± 10.3%
% Remaining ± SD ([1]; 60 minutes): 88.3 ± 7.0%
% Remaining ± SD ([1]; 120 minutes): 88.2 ± 8.2%
pharmacologically active dose (PAD) [2]: 22.5 mg·kg-1·day-1
IC50 ([3]; Homo sapiens, MCF-10A, MCF10a, 72 hours of incubation, cell count method): 440 µM
toxicity ([3]; non tumor cell lines (Table 17)): above 100 µM
Kidney to plasma ([4]; 4 hours after single administration I.P. 45 mg/Kg): 11.5
Kidney to plasma ([4]; 8 hours after single administration I.P. 45 mg/Kg): 9.2
Kidney to plasma ([4]; 24 hours after single administration I.P. 45 mg/Kg): 9.3
IC50 [5]: 0.58 µM
